# Key:
# [1] = tested on: 184V; test: Drug susceptibility assay (cell-killing MTT assay) in MT-2 cells; settings: Human immunodeficiency virus 1, MT2, 120 h
# Experimental: The cells were maintained at 37°C, 5% CO2. One day prior to the experiments, the cells were passaged 1:1 in a concentration of 1 × 10^6 cells/ml.
# The genes that contain the drug resistance mutations are excised from the clinical isolates and cloned into the genetic background of HXB2. Thus all tested HIV-1 strains have the same genetic background. […] This strain contains an insertion of two a.a. between codons 68 and 69 of RT as well as an a.a. change at codon 67.
# After 5 days of incubation a cellular viability assay was performed as described above. In this case, the amount of formazan reflects the number of cells protected by the drug against killing by the virus and is used as a read out for drug susceptibility.
# [2] = tested on: MT2 cells
# Experimental: After 5 days of incubation a cellular viability assay was performed as described above.
# [3] = tested on: HIV-1Ba-L; test: Combination of HIV-1 inhibitors in HIV-1Ba-L infected PBMC (checker board, CalcuSyn); settings: Human immunodeficiency virus 1, PBMC
# Experimental: After 7 days incubation, samples of the supernatants were collected, inactivated by addition of Empigen (Calbiochem, La Jolla, CA, USA) and by heat inactivation at 56°C for 30 min. p24-core antigen concentration was determined by an ELISA (AMPAK™, DAKO, Cambridgeshire, UK) as described previously ^39,40. The optical density values were converted into p24 concentration (ng/ml) with the use of a calibration curve made by serial dilutions of recombinant p24 protein (NIBSC, UK) that was submitted to the same treatment as the samples.
# After 7 days of incubation, p24 antigen in culture supernatant was quantified by ELISA and cellular viability was assessed by a cytotoxicity assay. fa was calculated for each drug combination after p24 quantification. Using the CalcuSyn program, dose-effect curves were plotted for each drug combination, i.e., each dose was plotted against the corresponding fa value. […] CI values were calculated using the mutually nonexclusive assumption.
# [4] = tested on: HIV-1Ba-L; test: HIV-1 infection of monocyte-derived macrophages (MDM), p24-core antigen ELISA; type: cell-based; settings: Human immunodeficiency virus 1, Macrophage, 168 h; MDM infected with HIV-1Ba-L, p24 antigen after 7 days
# Experimental: To correct for the input virus, an extra control consisting of medium containing the same amount of input virus as added to the cells was included in the experiment. The amount of p24 in this control was subsequently subtracted from the p24 values of the samples in order to obtain the exact amount of p24 produced by the cells. p24-core antigen quantification by ELISA After 2 or 7 days incubation, samples of the supernatants were collected, inactivated by addition of Empigen (Calbiochem, La Jolla, CA, USA) and by heat inactivation at 56°C for 30 min. p24-core antigen concentration was determined by an enzyme linked immunoabsorbent assay (ELISA) (AMPAK™, DAKO, Cambridgeshire, UK) as described previously ^18,19. The optical density values were converted into p24 concentration (ng/ml) with the use of a calibration curve made by serial dilutions of recombinant p24 protein (NIBSC, UK) that was submitted to the same treatment as the samples.
# [5] = tested on: chronically HIV-1-infected U1 cell line; test: Infection model with the chronically HIV-1-infected monocytic cell line U1, p24 ELISA; type: cell-based; settings: PMA (100 ng/ml) stimulated, APHS 3, 10 and 30 µM, 2 days
# Experimental: U1 cells (AIDS Reagents, Rockville, […]) were incubated with 100 ng/ml phorbol myristate acetate (PMA; Sigma) or with medium (negative control) for 30 min. Afterwards the cells were washed and seeded in a concentration of 1 × 10^6 cells/ml in RPMI 1640 medium containing 10% FCS and 10 µg/ml gentamycin either with increasing concentrations of APHS or with 30 mM N-acetyl-L-cysteine (NAC; Sigma), which served as a positive control. After 2 days of incubation, samples of the supernatant were collected, inactivated by addition of Empigen and by 30 min incubation at 56°C. The concentration of p24 was determined by ELISA (AMPAK™) as described above.
# [6] = tested on: HIV-1Ba-L; test: Entry assay: gag RNA in PBMC by real-time Taqman PCR; type: cell-based; settings: gag RNA in PBMC 2h after infection, 10 or 30 µM APHS
# Experimental: PBMC infection with HIV-1Ba-L or HIV-1HXB2 for real-time Taqman PCR The ability of HIV-1Ba-L to enter the cells in the presence of APHS was tested using DS as positive control (entry assay). The amount of HIV-1HXB2 reverse transcription products in the presence of APHS was also tested, using AZT as positive control (reverse transcription assay). Before infection, PHA-stimulated PBMC from the PBMC batch were pre-incubated with different concentrations of APHS, DS or AZT for 24 h. […]
# Real-time Taqman PCR is based on cleavage of a probe, hybridized to the target sequence by 5'-3' nuclease activity of Taq DNA polymerase during amplification, as described previously ^24. […] Once separated from the quencher, the reporter dye emits its characteristic fluorescence, which can then be measured. The amount of fluorescence measured is proportional to the amount of PCR product.
# HIV-1 gag cDNA and HIV-1 (-) strong stop and gag DNA were amplified and quantified by real-time Taqman PCR as described elsewhere ^25. […] To quantify the amount of gag RNA in the samples, a cDNA standard curve was prepared from five-fold dilutions of extracted RNA from an HXB2 viral batch, of which the RNA amount was previously determined.
# [7] = Cellular viability assay (MTT) of MDM; type: cell-based; settings: human, 7 days, read-out: TC50
# [8] = in vitro; settings: human, pbmc
# [9] = tested on: FIV UT-113; test: FIV infection of CrFK cells, FIV p24 ELISA; type: cell-based, Feline immunodeficiency virus (FIV); settings: 100 to 0.024 µM, p24 after 6 days
# Experimental: After 6 days of incubation FIV replication was measured by quantification of the p24 viral core antigen in the cell culture supernatant by an FIV p24 enzyme-linked immunoabsorbent assay as described previously ^19.
smiles,measurement,setting,value
"CCCCC#CCSc1ccccc1OC(C)=O [APHS, o-(acetoxyphenyl)hept-2-ynyl sulfide]",IC50,[1],5 µM
same,toxicity for MT2 cells,[2],did not show any significant toxicity
same,IC50,"[3]; 168 h, read-out: IC50 Alone APHS, APHS alone, PBMC, HIV-1Ba-L, 7 days, one value per experiment with the named partner drug",10 to 15 µM
same,IC50,"[3]; read-out: IC50 of APHS alone (mean), mean over the combination experiments",13 µM
same,IC50,"[3]; read-out: IC50 of APHS in combination with RTI or PI (mean), mean over the combination experiments",5 µM
same,IC50,[4],12 µM
same,HIV-1 production (p24) by U1 cells,[5],not capable of inhibiting HIV-1 production
same,viral entry,[6],no inhibition of viral entry
same,CC50 at 168 h,[7],235 µM
same,CC50 at 168 h,[8],105 µM
same,effect on FIV replication,[9],did not show any effect

# From patent publication EP1452605A1, “Method for determining antiviral activity” (Universiteit Utrecht Holding B.V., priority 2003, dated 2004)
